The subject of test [1] is HeyA8 tumor samples. Put plainly: Mean vessel density (CD31) in HeyA8 tumor samples. Format: in vivo, nude mice. The note with it: for MVD counts: daily agonist treatment. As to the method:
Paraffin sections were stained for CD31 (1:800 dilution, Pharmingen, San Jose, Calif.), MMP-2 (1:500 dilution, Chemicon, Temecula, Calif.), MMP-9 (1:200 dilution, Calbiochem, San Diego, Calif.), VEGF (1:500 dilution, Santa Cruz Biotechnology, Santa Cruz, Calif.) and bFGF (1:1,000 dilution, Sigma, St. Louis, Mo.) at 4° C. Samples were stained with a biotinylated goat anti-rabbit antibody for 30 min (prediluted), followed by strepavidin horseradish peroxidase for 30 min (1:300 dilution), and visualized in 3,3′-diaminobenzidine (DAB) for 5-10 min.
To quantify MVD, 10 random 0.159 mm^2 fields at 100× magnification were examined for each tumor, and the microvessels within those fields were counted. A single microvessel was defined as a discrete cluster of cells stained CD31(+), and the presence of a lumen was required for scoring as a microvessel.

Test [2] has as its system VEGF mRNA. Put plainly: VEGF mRNA expression, real-time RT-PCR. The note with it: SKOV3ip1; forskolin 1 μM, db-cAMP 1 mM. The class given is cell-based, human. As to the method:
Total RNA was extracted (Trizol reagent; Invitrogen Co, Carlsbad, Calif.) and reverse transcribed using an oligo(dT) primer and M-MLV reverse transcriptase (Life Technologies, Inc., Rockville, Md.) in a final reaction volume of 20 μl (60 min at 42° C.). PCR amplifications are performed using the ABI Prism 7700 Sequence Detection System with TaqMan One-Step RT-PCR Master Mix Reagent kit (PE Applied Biosystems, Foster City, Calif.). Quantitative values are obtained from the Ct value, at which the increase in fluorescent signal associated with exponential growth of PCR products starts to be detected by the laser detector of the Sequence Detection System, using the analysis software according to the manufacturer's instructions (each sample is normalized on the basis of its I8S content). The VEGF primers were obtained from Applied Biosystems (Item number HS00173626-ml). βAR expression was examined with semi-quantitative RT-PCR using the following primers: βAR (forward, 5′-[…]-3′ (SEQ ID NO:13), reverse, 5′-[…]-3′) (SEQ ID NO:14); β2AR (forward, 5′-[…]-3′ (SEQ ID NO:15), reverse, 5′-[…]-3′) (SEQ ID NO:16).

The subject of test [3] is HeyA8 cells. Briefly: Chronic restraint stress, HeyA8 orthotopic tumor growth. Format: in vivo, nude mice. The note with it: propranolol Alzet pump 2 mg/kg/day. The text has this:
Mice habituated to vivarium conditions for 1 week before the initiation of stress procedures. A restraint-stress procedure was used based on previous studies (Sheridan et al., 1991), substituting a novel Mouse Restraint System (FIG. 15A) for conical centrifuge tubes. In this system, up to 10 mice are placed in individual slots, and each slot can be adjusted to restrain the animal for a desired length of time. In the present study, restraint stress began between 8 a.m. and 10 a.m., and lasted for 2-6 hours for up to 21 days. […] Immunohistochemistry and H&E staining procedures were carried out on formalin-fixed paraffin-embedded tumors. […] Pumps were inserted on the nape of the neck 7 days prior to initiation of restraint stress for 2 hours daily. Mice were anesthetized with inhaled methoxyflurane (Medical Developments Australia Pty. Ltd, Melbourne, Australia), and implanted with Alzet pumps containing PBS or S-propranolol hydrochloride (Sigma Co., St. Louis, Mo.) diluted in PBS at a dose of 2 mg/kg/day, which allows for chronic continuous receptor blockade, for 28 days (Aarons and Molinoff, 1982; Exton et al., 2002).

For test [4], the system named is HeyA8 cells. Put plainly: Daily β-agonist treatment of mice bearing HeyA8 ovarian cancer cells. The class given is in vivo, nude mice. The note with it: terbutaline 5 mg/kg, xamoterol 1 mg/kg, isoproterenol plus propranolol 2 mg/kg, daily. The text has this:
Mice habituated to vivarium conditions for 1 week before the initiation of stress procedures. A restraint-stress procedure was used based on previous studies (Sheridan et al., 1991), substituting a novel Mouse Restraint System (FIG. 15A) for conical centrifuge tubes. In this system, up to 10 mice are placed in individual slots, and each slot can be adjusted to restrain the animal for a desired length of time. In the present study, restraint stress began between 8 a.m. and 10 a.m., and lasted for 2-6 hours for up to 21 days. The ovarian cancer cell lines were harvested from subconfluent cultures by a brief exposure to 0.25% trypsin and 0.02% EDTA, resuspended in Hank's balanced salt solution (HBSS), and tested for >95% viability by trypan blue dye exclusion. The HeyA8 cells were injected i.p. into mice at a concentration of 2.5×10^5 cells while the other cell lines were injected at 1.0×10^6 cells per 0.2 ml HBSS, ten days after starting stress in all groups. Animals were necropsied 21 days after tumor injection, and tumors in the peritoneal cavity were excised, weighed, and documented for location. Immunohistochemistry and H&E staining procedures were carried out on formalin-fixed paraffin-embedded tumors.
Starting 4 days after tumor cell injection, mice bearing HeyA8 ovarian cancer cells (n=10 per group) were treated daily with either 1) PBS; 2) isoproterenol (non-specific β-agonist) 10 mg/kg; 3) terbutaline (β2-agonist) 5 mg/kg; 4) xamoterol (β1-agonist) 1 mg/kg; or 5) isoproterenol plus 2 mg/kg of the non-specific β-antagonist propranolol.

Test [5] relates to SKOV3 cells. Briefly: TUNEL apoptosis assay, SKOV3. The class given is cell-based, human. The note with it: SKOV3, docetaxel 72 hours without or with DEVD-fmk. How it is done:
(§1) Terminal deoxynucleotidyl transferase-mediated nick end labeling-positive cells were detected using Dead End Fluorometric terminal deoxynucleotidyl transferase-mediated nick end labeling system (APO-DIRECT, BD Biosciences/PharMingen, San Diego, Calif.) according to the manufacturer's instructions. […] Cells were fixed with 4% paraformaldehyde solution for 25 minutes on ice. Intracellular DNA fragments were then labeled by exposing cells to fluorescein-12-dUTP, treated with propidium iodide and RNaseA solution, and analyzed by flow cytometry (EPICS XL, Beckman Coulter, Miami, Fla.). The percentages of apoptotic cells were averaged over three consecutive experiments.

The test system of test [6] is FAK. Briefly: FAK cleavage in response to docetaxel, Western blot. Format: cell-based, human. The note with it: in the presence of DEVD-fmk. As to the method:
Cells were lysed in modified RIPA buffer (50 mM Tris, 150 mM NaCl, 1% triton, 0.5% deoxycholate plus 25 µg/ml leupeptin, 10 µg/ml aprotinin, 2 mM EDTA, and 1 mM sodium orthovanadate (Sigma Chemical Co, St. Louis, Mo.) as previously described (Sood et al., 2004; Sood et al., 2002). A sample was removed from culture dishes by cell scraping and centrifuged at 12,500 rpm for 30 min. The […] protein concentration of the supernatant was determined using a bicinchoninic acid protein assay reagent kit (Pierce, Rockford, Ill.), and whole cell lysates were analyzed by 7.5% SDS-PAGE. Samples were then transferred to nitrocellulose membrane by semi-dry transfer (BioRad Laboratories, Hercules, Calif.). Membranes were blocked with 5% nonfat milk, and incubated with 0.25 μg/mL anti-FAK antibody (Biosource, International Camarillo, Calif.) for 1 h at room temperature. Antibody was detected with 0.167 μg/mL HRP-conjugated anti-mouse secondary antibody (The Jackson Laboratory, Bar Harbor, Me.) and developed with an enhanced chemiluminescence detection kit (Pierce). Equal loading was confirmed by detection of β-actin (0.1 μg/ml, anti-β-actin antibody, Sigma Chemical). Densitometric analysis was performed using the Scion Imaging software (Scion Corporation, Frederick, Md.).
It has been reported that FAK may be cleaved by caspase-3 (Gervais et al., 1998; Sasaki et al., 2002; Carragher et al., 2001). Based on observations regarding modulation of caspase levels by docetaxel in ovarian cancer cells, FAK cleavage after treatment with docetaxel was examined and whether there are differences in extent of FAK cleavage between the taxane-sensitive and taxane-resistant cell lines. In SKOV3 cells, FAK was cleaved after 48 and 72 hours of exposure to docetaxel (FIG. 7A). The 71-kDa fragments increased after treatment with docetaxel, whereas the 125-kDa fragments decreased. […] To study the dependence of FAK cleavage on caspase-3, the effect of DEVDfmk (caspase-3 inhibitor) was examined.

The subject of test [7] is HeyA8 cells. Put plainly: TUNEL apoptosis assay, HeyA8. The class given is cell-based, human. The note with it: HeyA8, docetaxel 72 hours without or with DEVD-fmk. As to the method:
as §1

The source of these data is patent US8895717B2, “Delivery of siRNA by neutral lipid compositions” (The Board of Regents of the University of Texas System, priority 2005, dated 2014).

Where a name gives a salt, the structure may show the parent alone.

For `CC(C)NC[C@H](O)COc1cccc2ccccc12` (racemic) [propranolol, S-propranolol hydrochloride], in test [1], the MVD counts result was “blocked that increase as well”. In test [1] (stressed animals), the “stress-induced increases in MVD counts” value is given as “efficiently blocked stress-induced increases in MVD counts”. In test [2], the “effect on VEGF mRNA” value is “blocked”. Also, in test [3], the “invasive disease among stressed animals” value came out at 0%. Besides, in test [3] (daily 2 hour stress), the “effect of stress on tumor weight and number of nodules” value is listed as “stress did not significantly increase tumor weight or the number of tumor nodules”. In addition, in test [4], the tumor burden result is recorded as “blocked the isoproterenol-induced increase in tumor growth”.

Consider `COC(=O)CC[C@H](NC(=O)[C@H](CC(=O)OC)NC(=O)OCc1ccccc1)C(=O)N[C@H](C(=O)N[C@@H](CC(=O)OC)C(=O)CF)C(C)C` [DEVD-fmk], for which the “proportion of apoptotic cells” value in test [5] came out at 7%; in test [7], 6%. The “docetaxel-induced FAK cleavage” value in test [6] is reported as “docetaxel-induced FAK cleavage was blocked”.

With `CCCCCCOC(=O)[C@]1(O)C[C@@H]2O[C@@]1(C)n1c3ccccc3c3c4c(c5c6ccccc6n2c5c31)C(=O)NC4` [KT5720], the “effect on VEGF mRNA” value in test [2] is “efficiently blocked the effects of norepinephrine and forskolin on VEGF mRNA expression”.

As to `CCCC(=O)Nc1ncnc2c1ncn2[C@@H]1O[C@@H]2COP(=O)(O)O[C@H]2[C@H]1OC(=O)CCC` [dibutyryl cAMP], the “effect on VEGF mRNA” value in test [2] is reported as “also increased VEGF mRNA levels”.

In the case of `CC(C)(C)NCC(O)c1cc(O)cc(O)c1` (stereo not drawn) [terbutaline], the MVD counts entry in test [1] was “significantly higher MVD counts compared to controls”.
